Reference: patent publication US20080138437A1, “Antitumor Agent” (priority 2004, published 2008)
Counter-ions that a name gives are not always drawn. Like-named read-outs stand apart in the source and are kept apart here.

Columns and labels:
in vivo = settings: male, C57BL/6, mouse
[1] = tested on: 15 types of human cancer cells; experiment: Cell growth inhibition test, MTT, average GI 50; assay type: cell-based; settings: average of 15 human cancer cell types, 48 hours exposure
Method: Appropriate amounts of each of the human cancer cells suspended in 5% fetal bovine serum-supplemented medium were plated into a 96-well plate, and allowed to adhere to the wells in a 37° C. CO2 incubator overnight.
These cancer cells were exposed to each anticancer agent for 48 hours. Cell growth was assayed by MTT. Absorbance of the control well (C) and the test well (T) was measured at 550 nm.
The absorbance of the test well immediately after adding the drug (TO) was also measured. Using these measured values, GI 50 of each drug was calculated, and the drug concentration at that time was obtained. For comparison, a similar test was performed for each of the anticancer agents (Comparative Tests 4-1 to 4-7).

C57BL/6 male mouse = settings: for deaths versus administered animals: one-time
[2] = tested on: HCT-15 colon cancer cells; experiment: Antitumor test, transplanted tumor in nude mice; assay type: in vivo, human; settings: control, drug without hydroxyapatite adsorption
Description: (§1) (Experimental Test 5-1 to 5-5).
(§2) Female nude mice (7 weeks old, 16 to 22 g) with a BALB/c genetic background were used for the tests. Human cancer cells used for the tests were GCIY stomach cancer cells, HCT-15 colon cancer cells, A549 lung cancer cells, and OVCAR-3 ovarian cancer cells. Human cancer cells were subcutaneously transplanted into nude mice, tumor lumps were formed, and these carcinomas were used for the tests.
(§3) Aseptically collected tumors were sliced into tumors of 3×3×3 mm, and then subcutaneously transplanted into a new nude mouse. When the tumors reached a volume of 100 to 300 mm^3, the animals were arbitrarily divided into groups of six (Day 0). […] Intravascular administration was the administration route for all.
(§4) After administration, between Days 24 to 31, the length (L) and width (W) of the tumor lump of the animal were measured twice a week, and the tumor volume (TV) was calculated according to the following formula: TV=(L×W^2)/2. Antitumor effect was determined at Day 14. The relative tumor volume (RTV) was obtained by the following formula: RTV=TV14/TV0, using values of the tumor volume at Day 0 and Day 14 (referred to as TV0 and TV14). Antitumor effect was evaluated as the tumor regression rate at Day 14 (T/C%). Herein, T/C %=100×(average RTV of the treated group)/(RTV of the control group).
(§5) As a control, each drug was tested without hydroxyapatite adsorption (Comparative Tests 5-10 to 5-14).

[3] = tested on: GCIY stomach cancer cells; experiment: Antitumor test, transplanted tumor in nude mice; assay type: in vivo, human; settings: control, drug without hydroxyapatite adsorption
Description: as §1, §2, §3, §4, §5

[4] = tested on: OVCAR-3 ovarian cancer cells; experiment: Antitumor test, transplanted tumor in nude mice; assay type: in vivo, human; settings: control, drug without hydroxyapatite adsorption
Description: as §1, §2, §3, §4, §5

A549 lung cancer cells = experiment: Antitumor test, transplanted tumor in nude mice; assay type: in vivo, human; settings: control, drug without hydroxyapatite adsorption
Description: as §1, §2, §3, §4, §5

[5] = intravascular, one-time administration, 14 days observation
[6] = 10 mg/kg intravascular, 14 days observation
[7] = 400 mg/kg oral, antitumor agent alone, 14 days observation
[8] = 600 mg/kg oral, antitumor agent alone, 14 days observation
[9] = 800 mg/kg oral, antitumor agent alone, 14 days observation
[10] = 1000 mg/kg oral, antitumor agent alone, 14 days observation
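Wherever LD50 is given: mice given a single dose and followed for 14 days, with deaths tallied, LD50 derived from the doses given and the resulting death counts.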
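Wherever deaths versus administered animals is given: mice given a single dose and followed for 14 days, with deaths tallied, LD50 derived from the doses given and the resulting death counts.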

CS(=O)(=O)OCCCCOS(C)(=O)=O [Busulphan]
LD50 at 14 days (in vivo; po): 40 mg/kg

N.N.O=C([O-])C1(C(=O)[O-])CCC1.[Pt+2] [Carboplatin]
GI50 [1]: 75.7 µM | deaths versus administered animals (C57BL/6 male mouse; 70 mg/kg intravascular, 14 days observation): 0/6 | deaths versus administered animals (C57BL/6 male mouse; 80 mg/kg intravascular, 14 days observation): 1/7 | deaths versus administered animals (C57BL/6 male mouse; 90 mg/kg intravascular, 14 days observation): 3/6 | deaths versus administered animals (C57BL/6 male mouse; 100 mg/kg intravascular, 14 days observation): 5/8 | deaths versus administered animals (C57BL/6 male mouse; 110 mg/kg intravascular, 14 days observation): 7/8 | deaths versus administered animals (C57BL/6 male mouse; 120 mg/kg intravascular, 14 days observation): 7/7 | LD50 (C57BL/6 male mouse; [5]): 93.0 mg/kg | LD50 (C57BL/6 male mouse; oral, antitumor agent alone (comparison), one-time administration, 14 days observation): 350 mg/kg

COC(COC(N)=O)C1=C(N2CC2)C(=O)C(C)=C(N2CC2)C1=O (centres unmarked) [Carboquone]
LD50 (in vivo): 5.8 mg/kg

N.N.[Cl][Pt][Cl] [Cisplatin]
GI50 [1]: 7.21 µM | Regression rate of transplanted cancer (T/C %) at Day 14 [2]: 53% | Regression rate of transplanted cancer (T/C %) at Day 14 [3]: 67% | Regression rate of transplanted cancer (T/C %) at Day 14 [4]: 67% | Regression rate of transplanted cancer (T/C %) at Day 14 (A549 lung cancer cells): 79% | deaths versus administered animals (C57BL/6 male mouse; 5.0 mg/kg intravascular, 14 days observation): 1/8 | deaths versus administered animals (C57BL/6 male mouse; 7.5 mg/kg intravascular, 14 days observation): 2/7 | deaths versus administered animals (C57BL/6 male mouse; [6]): 5/8 | deaths versus administered animals (C57BL/6 male mouse; 12.5 mg/kg intravascular, 14 days observation): 6/8 | deaths versus administered animals (C57BL/6 male mouse; 15 mg/kg intravascular, 14 days observation): 5/6 | deaths versus administered animals (C57BL/6 male mouse; 17.5 mg/kg intravascular, 14 days observation): 6/6

O=P1(N(CCCl)CCCl)NCCCO1 (centres unmarked) [Cyclophosphamide]
LD50 (in vivo): 140 mg/kg | Regression rate of transplanted cancer (T/C %) at Day 14 [2]: 52% | Regression rate of transplanted cancer (T/C %) at Day 14 [3]: 78% | Regression rate of transplanted cancer (T/C %) at Day 14 [4]: 71% | Regression rate of transplanted cancer (T/C %) at Day 14 (A549 lung cancer cells): 86%

CCCCCCCCCCCCCCCCCCOP(=O)([O-])OC[C@H]1O[C@@H](n2ccc(N)nc2=O)[C@@H](O)[C@@H]1O.[Na+] [Cytarabine ocfosfate]
deaths versus administered animals (C57BL/6 male mouse; 250 mg/kg oral, antitumor agent alone, 14 days observation): 0/5 | deaths versus administered animals (C57BL/6 male mouse; 300 mg/kg oral, antitumor agent alone, 14 days observation): 1/5 | deaths versus administered animals (C57BL/6 male mouse; [7]): 2/5 | deaths versus administered animals (C57BL/6 male mouse; 500 mg/kg oral, antitumor agent alone, 14 days observation): 2/5 | deaths versus administered animals (C57BL/6 male mouse; [8]): 3/5 | deaths versus administered animals (C57BL/6 male mouse; 700 mg/kg oral, antitumor agent alone, 14 days observation): 3/5 | deaths versus administered animals (C57BL/6 male mouse; [9]): 4/5 | deaths versus administered animals (C57BL/6 male mouse; [10]): 5/5 | LD50 (C57BL/6 male mouse; mouse, in vivo, po): 524 mg/kg

CN(C)/N=N/c1[nH]cnc1C(N)=O [Dacarbazine]
LD50 (in vivo): 452 mg/kg

C[C@H]1O[C@@H](n2cc(F)c(=O)[nH]c2=O)[C@H](O)[C@@H]1O [Doxifluridine]
LD50 (in vivo; po): 1200 mg/kg

C[C@]12CC[C@@H]3c4ccc(OC(=O)N(CCCl)CCCl)cc4CC[C@H]3[C@@H]1CC[C@@H]2OP(=O)(O)O [Estramustine sodium phosphate]
LD50 (in vivo; po): 380 mg/kg

COc1cc([C@@H]2c3cc4c(cc3[C@@H](O[C@@H]3O[C@@H]5CO[C@@H](C)O[C@H]5[C@H](O)[C@H]3O)[C@H]3COC(=O)[C@H]23)OCO4)cc(OC)c1O [Etoposide]
GI50 [1]: 5.11 µM | LD50 (in vivo): 32.7 mg/kg | LD50 (in vivo; po): 220 mg/kg | Regression rate of transplanted cancer (T/C %) at Day 14 [2]: 67% | Regression rate of transplanted cancer (T/C %) at Day 14 [3]: 93% | Regression rate of transplanted cancer (T/C %) at Day 14 [4]: 76% | Regression rate of transplanted cancer (T/C %) at Day 14 (A549 lung cancer cells): 72% | deaths versus administered animals (C57BL/6 male mouse; [6]): 0/6 | deaths versus administered animals (C57BL/6 male mouse; 20 mg/kg intravascular, 14 days observation): 1/6 | deaths versus administered animals (C57BL/6 male mouse; 30 mg/kg intravascular, 14 days observation): 2/6 | deaths versus administered animals (C57BL/6 male mouse; 40 mg/kg intravascular, 14 days observation): 5/7 | deaths versus administered animals (C57BL/6 male mouse; 50 mg/kg intravascular, 14 days observation): 5/6 | deaths versus administered animals (C57BL/6 male mouse; 60 mg/kg intravascular, 14 days observation): 6/6

CC(C)C(=O)Nc1ccc([N+](=O)[O-])c(C(F)(F)F)c1 [Flutamide]
LD50 (in vivo; po): 772 mg/kg

CC(C)C[C@H](NC(=O)[C@@H](COC(C)(C)C)NC(=O)[C@H](Cc1ccc(O)cc1)NC(=O)[C@H](CO)NC(=O)[C@H](Cc1c[nH]c2ccccc12)NC(=O)[C@H](Cc1cnc[nH]1)NC(=O)[C@@H]1CCC(=O)N1)C(=O)N[C@@H](CCCNC(=N)N)C(=O)N1CCC[C@H]1C(=O)NNC(N)=O [Goserelin acetate]
LD50 (in vivo; sc): 36 mg/kg

NC(=O)NO [Hydroxycarbamide]
LD50 (in vivo; po): 2350 mg/kg

O=P1(NCCCl)OCCCN1CCCl (centres unmarked) [Ifosfamide]
LD50 (in vivo): 325 mg/kg | LD50 (in vivo; po): 996 mg/kg

N[C@@H](Cc1ccc(N(CCCl)CCCl)cc1)C(=O)O [Melphalan]
LD50 (in vivo): 21 mg/kg

Sc1ncnc2nc[nH]c12 [Mercaptopurine]
LD50 (in vivo; po): 1090 mg/kg

CN(Cc1cnc2nc(N)nc(N)c2n1)c1ccc(C(=O)N[C@@H](CCC(=O)O)C(=O)O)cc1 [Methotrexate]
LD50 (in vivo; ip): 74 mg/kg

CO[C@@]12[C@H](COC(N)=O)C3=C(C(=O)C(C)=C(N)C3=O)N1C[C@@H]1N[C@@H]12 [Mitomycin C]
GI50 [1]: 1.43 µM

CC(=O)O[C@H]1C(=O)[C@@]2(C)[C@H]([C@H](OC(=O)c3ccccc3)[C@]3(O)C[C@H](OC(=O)[C@H](O)[C@@H](NC(=O)c4ccccc4)c4ccccc4)C(C)=C1C3(C)C)[C@]1(OC(C)=O)CO[C@@H]1C[C@@H]2O [Paclitaxel]
LD50 (in vivo): 12 mg/kg

CC(C)COC(=O)OCN1C(=O)CN(CCN2CC(=O)N(COC(=O)OCC(C)C)C(=O)C2)CC1=O [Sobuzoxane]
deaths versus administered animals (C57BL/6 male mouse; 200 mg/kg oral, antitumor agent alone, 14 days observation): 0/5 | deaths versus administered animals (C57BL/6 male mouse; [7]): 1/5 | deaths versus administered animals (C57BL/6 male mouse; [8]): 1/6 | deaths versus administered animals (C57BL/6 male mouse; [9]): 2/5 | deaths versus administered animals (C57BL/6 male mouse; [10]): 3/5 | deaths versus administered animals (C57BL/6 male mouse; 1200 mg/kg oral, antitumor agent alone, 14 days observation): 4/5 | deaths versus administered animals (C57BL/6 male mouse; 1400 mg/kg oral, antitumor agent alone, 14 days observation): 6/6

O=c1[nH]c(=O)n(C2CCCO2)cc1F (centres unmarked) [Tegafur]
LD50 (in vivo; ip): 750 mg/kg

S=P(N1CC1)(N1CC1)N1CC1 [Thiotepa]
LD50 (in vivo): 16.1 mg/kg

CN(C)CCOc1ccc(/C(=C(/CCCl)c2ccccc2)c2ccccc2)cc1 [Toremifene citrate]
LD50 (in vivo; po): 360 mg/kg

CC1=C(/C=C/C(C)=C/C=C/C(C)=C/C(=O)O)C(C)(C)CCC1 [Tretinoin]
LD50 (in vivo; po): 549 mg/kg

CC[C@]1(O)C[C@@H]2CN(CCc3c([nH]c4ccccc34)[C@@](C(=O)OC)(c3cc4c(cc3OC)N(C)[C@H]3[C@@](O)(C(=O)OC)[C@H](OC(C)=O)[C@]5(CC)C=CCN6CC[C@]43[C@@H]65)C2)C1 [Vinblastine sulfate]
LD50 (in vivo): 5.6 mg/kg | LD50 (in vivo; po): 427 mg/kg

CCC1=C[C@@H]2CN(C1)Cc1c([nH]c3ccccc13)[C@@](C(=O)OC)(c1cc3c(cc1OC)N(C)[C@H]1[C@@](O)(C(=O)OC)[C@H](OC(C)=O)[C@]4(CC)C=CCN5CC[C@]31[C@@H]54)C2 [Vinorelbine tartrate]
LD50 (in vivo): 2.3 mg/kg

CCC1=C[C@@H]2CN(C1)Cc1c([nH]c3ccccc13)[C@@](C(=O)OC)(c1cc3c(cc1OC)N(C)[C@H]1[C@@](O)(C(=O)OC)[C@H](OC(C)=O)[C@]4(CC)C=CCN5CC[C@]31[C@@H]54)C2 [Vinorelbine]
LD50 (in vivo; ip): 29 mg/kg

Bleomycin hydrochloride
deaths versus administered animals (C57BL/6 male mouse; 200 mg/kg intravascular, 14 days observation): 0/5 | deaths versus administered animals (C57BL/6 male mouse; 250 mg/kg intravascular, 14 days observation): 1/6 | deaths versus administered animals (C57BL/6 male mouse; 300 mg/kg intravascular, 14 days observation): 3/7 | deaths versus administered animals (C57BL/6 male mouse; 350 mg/kg intravascular, 14 days observation): 4/6 | deaths versus administered animals (C57BL/6 male mouse; 400 mg/kg intravascular, 14 days observation): 4/5 | deaths versus administered animals (C57BL/6 male mouse; 500 mg/kg intravascular, 14 days observation): 5/6 | deaths versus administered animals (C57BL/6 male mouse; 600 mg/kg intravascular, 14 days observation): 6/6 | LD50 (C57BL/6 male mouse; [5]): 322.7 mg/kg

B1: Neocarzinostatin (protein, UniProt P0A3R9 35-147, looked up)
Neocarzinostatin: AAPTATVTPSSGLSDGTVVKVAGAGLQAGTAYDVGQCAWVDTGVLACNPADFSSVTADANGSASTSLTVRRSFEGFLFDGTRWGTVDCTTAACQVGLSDAAGNGPEGVAISFN
modifications: enediyne chromophore
LD50 (C57BL/6 male mouse; intraperitoneal, one-time administration, 14 days observation): 1050 mg/kg
